Entries after “also recorded” stand apart in the source; their conditions may differ. Where two headings read alike, the source gives them in different places.
Assay: Phase I trial of oral PCLX-001: plasma pharmacokinetics, noncompartmental analysis (Phoenix WinNonlin 8.3)
Type: in vivo, human
Conditions: for half-life / Tmax / AUC(0-inf) / Cmax / AUC(0-t): human, plasma, po; for half-life: read-out: Half-life (converted); for Tmax: read-out: Tmax; for AUC(0-t): read-out: AUClast or AUCtau
Source text: The clinical trial is entitled “Phase I Trial of PCLX-001 in B-cell Non-Hodgkin Lymphoma and Advanced Solid Malignancies” and registered at clinicaltrials.gov as NCT04836195. It is a phase I dose-escalation study of oral PCLX-001, conducted in a multicenter, non-randomized, open-label, non-controlled design. The study is comprised of two parts: Part A (single-agent dose escalation) and Part B (single-agent expansion cohorts).
Patients are to receive daily oral PCLX-001 on 28-day cycles, beginning with a starting dose of 20 mg.
[…] After dosing, the blood samples (volumes 3 mL) were serially collected into heparinized tubes from a right forearm butterfly cannula. All blood fluid specimens were frozen and later assayed using a validated UHPLC-MS detection method.
Noncompartmental pharmacokinetic analysis was performed using Phoenix WinNonlin 8.3 using trapezoidal rule and linear up log down methodology. WinNonlin was allowed to pick optimal terminal phases.
Nonparametric superposition was performed using Phoenix WinNonlin Nonparametric Superposition to predict steady state data based upon Day 1 data for each patient. It utilized the 8- and 24-hour time points for estimation of terminal phase for the purposes of this exercise. We simulated 20 mg daily oral dosing and simulations were conducted out to steady state. Results are show in FIGS. 5, 6, and 7.
In the non-compartmental analysis, Phoenix WinNonlin 8.3 trapezoidal rule was used, with linear up log down method. This allowed WinNonlin to pick optimal terminal phase (WinNonlin will accept Rsq adjusted to >0.7). Additional analysis to assess adequate fie included visual inspection of data, and AUCextrap should be <15%.
Phoenix WinNonlin 8.3 trapezoidal rule. Used linear up log down method. Allowed WinNonlin to pick optimal terminal phase (WinNonlin will accept Rsq adjusted >0.7).
Other analysis to assess adequate fit. Visual inspection of data. AUCextrap should be <15%.

[1] = 20 mg, Table 1A, Patient 115-002-004 (Patient 3), Day 15, 20 mg oral daily
[2] = 20 mg, Table 6, Patient 115-002-001, Day 1, 20 mg QD oral, Pantoprazole No
[3] = 20 mg, Table 6, Patient 115-002-001, Day 15, 20 mg QD oral, Pantoprazole No
[4] = 20 mg, Table 6, Patient 115-002-002, Day 1, 20 mg QD oral, Pantoprazole No
[5] = 20 mg, Table 6, Patient 115-002-002, Day 15, 20 mg QD oral, Pantoprazole No
[6] = 20 mg, Table 6, Patient 115-002-004, Day 1, 20 mg QD oral, Pantoprazole No
[7] = 20 mg, Table 6, Patient 115-002-004, Day 15, 20 mg QD oral, Pantoprazole No
[8] = 40 mg, Table 7, Patient 115-002-005, Day 1, 40 mg QD oral, Pantoprazole Yes
[9] = 40 mg, Table 7, Patient 115-002-005, Day 15, 40 mg QD oral, Pantoprazole Yes
[10] = 40 mg, Table 7, Patient 115-002-006, Day 1, 40 mg QD oral, Pantoprazole Yes
[11] = 40 mg, Table 7, Patient 115-002-006, Day 15, 40 mg QD oral, Pantoprazole Yes
[12] = 40 mg, Table 7, Patient 115-009-001, Day 1, 40 mg QD oral, Pantoprazole No
[13] = 40 mg, Table 7, Patient 115-009-001, Day 15, 40 mg QD oral, Pantoprazole No
[14] = 70 mg, Table 8, Patient 115-002-007, Day 1, 70 mg QD oral, Pantoprazole Yes
[15] = 70 mg, Table 8, Patient 115-002-007, Day 15, 70 mg QD oral, Pantoprazole Yes
[16] = 70 mg, Table 8, Patient 115-002-008, Day 1, 70 mg QD oral, Pantoprazole Yes
[17] = 70 mg, Table 8, Patient 115-002-008, Day 15, 70 mg QD oral, Pantoprazole Yes
[18] = 70 mg, Table 8, Patient 115-024-001, Day 1, 70 mg QD oral, Pantoprazole No
[19] = 70 mg, Table 8, Patient 115-024-001, Day 15, 70 mg QD oral, Pantoprazole No
[20] = 100 mg, Table 9, Patient 115-002-009, Day 1, 100 mg QD oral, Pantoprazole No
[21] = 100 mg, Table 9, Patient 115-002-010, Day 1, 100 mg QD oral, Pantoprazole No
[22] = 100 mg, Table 9, Patient 115-002-011, Day 1, 100 mg QD oral, Pantoprazole No
[23] = 100 mg, Table 9, Patient 115-002-011, Day 15, 100 mg QD oral, Pantoprazole No
[24] = 100 mg, Table 9, Patient 115-002-012, Day 1, 100 mg QD oral, Pantoprazole No
[25] = 100 mg, Table 9, Patient 115-002-012, Day 15, 100 mg QD oral, Pantoprazole No
[26] = 140 mg, Table 10, Patient 115-002-006, Day 1, Dose 140 mg QD oral, Concomitant Pantoprazole No
[27] = 140 mg, Table 10, Patient 115-002-006, Day 15, Dose 140 mg QD oral, Concomitant Pantoprazole No
[28] = 140 mg, Table 10, Patient 115-024-005, Day 1, Dose 140 mg QD oral, Concomitant Pantoprazole Yes
[29] = 140 mg, Table 10, Patient 115-024-005, Day 15, Dose 140 mg QD oral, Concomitant Pantoprazole Yes
[30] = 140 mg, Table 10, Patient 115-024-013, Day 1, Dose 140 mg QD oral, Concomitant Pantoprazole Yes
[31] = 140 mg, Table 10, Patient 115-024-013, Day 15, Dose 140 mg QD oral, Concomitant Pantoprazole Yes

SMILES: Cc1c(NS(=O)(=O)c2c(Cl)cc(-c3ccnc(N4CCNCC4)c3)cc2Cl)c(CC(C)C)nn1C [PCLX-001, 2,6-dichloro-N-(3-isobutyl-1,5-dimethyl-1H-pyrazol-4-yl)-4-(2-(piperazin-1-yl)pyridin-4-yl)benzene sulfonamide]
- half-life [1]: 6.86 h
- Tmax [1]: 0.5 h
- AUC(0-inf) [2]: 2030 ng·h/mL
- Cmax [2]: 360 ng/mL
- AUC(0-t) [2]: 1720 ng·h/mL
- half-life [2]: 8.34 h
- Tmax [2]: 1 h
- AUC(0-inf) [3]: 3600 ng·h/mL
- Cmax [3]: 479 ng/mL
- AUC(0-t) [3]: 2750 ng·h/mL
- half-life [3]: 10.9 h
- Tmax [3]: 1 h
- Cmax [4]: 142 ng/mL
- AUC(0-t) [4]: 1300 ng·h/mL
- Tmax [4]: 4 h
- AUC(0-inf) [5]: 2440 ng·h/mL
- Cmax [5]: 243 ng/mL
- AUC(0-t) [5]: 2010 ng·h/mL
- half-life [5]: 9.42 h
- Tmax [5]: 2 h
- AUC(0-inf) [6]: 1880 ng·h/mL
- Cmax [6]: 326 ng/mL
- AUC(0-t) [6]: 1780 ng·h/mL
- half-life [6]: 5.51 h
- Tmax [6]: 2 h
- AUC(0-inf) [7]: 2110 ng·h/mL
- Cmax [7]: 356 ng/mL
- AUC(0-t) [7]: 1900 ng·h/mL
- half-life [7]: 6.47 h
- Tmax [7]: 0.5 h
- AUC(0-inf) [8]: 4900 ng·h/mL
- Cmax [8]: 868 ng/mL
- AUC(0-t) [8]: 4430 ng·h/mL
- half-life [8]: 7.5 h
- Tmax [8]: 0.5 h
- AUC(0-inf) [9]: 7060 ng·h/mL
- Cmax [9]: 802 ng/mL
- AUC(0-t) [9]: 6680 ng·h/mL
- half-life [9]: 5.54 h
- Tmax [9]: 2 h
- Cmax [10]: 7.13 ng/mL
- AUC(0-t) [10]: 79.6 ng·h/mL
- Tmax [10]: 4 h
- Cmax [11]: 40.8 ng/mL
- AUC(0-t) [11]: 175 ng·h/mL
- Tmax [11]: 4 h
- AUC(0-inf) [12]: 12600 ng·h/mL
- Cmax [12]: 1670 ng/mL
- AUC(0-t) [12]: 10100 ng·h/mL
- half-life [12]: 10.8 h
- Tmax [12]: 1 h
- AUC(0-inf) [13]: 18300 ng·h/mL
- Cmax [13]: 1480 ng/mL
- AUC(0-t) [13]: 13700 ng·h/mL
- half-life [13]: 11.9 h
- Tmax [13]: 2 h
- Cmax [14]: 158 ng/mL
- AUC(0-t) [14]: 1960 ng·h/mL
- Tmax [14]: 4 h
- Cmax [15]: 602 ng/mL
- AUC(0-t) [15]: 8130 ng·h/mL
- Tmax [15]: 4 h
- Cmax [16]: 408 ng/mL
- AUC(0-t) [16]: 4550 ng·h/mL
- Tmax [16]: 8 h
- Cmax [17]: 170 ng/mL
- AUC(0-t) [17]: 3380 ng·h/mL
- Tmax [17]: 8 h
- Cmax [18]: 1430 ng/mL
- AUC(0-t) [18]: 9400 ng·h/mL
- half-life [18]: 9.44 h
- Tmax [18]: 1 h
- Cmax [19]: 629 ng/mL
- AUC(0-t) [19]: 7300 ng·h/mL
- Tmax [19]: 4 h
- AUC(0-inf) [20]: 15400 ng·h/mL
- Cmax [20]: 1740 ng/mL
- AUC(0-t) [20]: 14800 ng·h/mL
- half-life [20]: 5.02 h
- Tmax [20]: 2 h
- AUC(0-inf) [21]: 22400 ng·h/mL
- Cmax [21]: 2490 ng/mL
- AUC(0-t) [21]: 20000 ng·h/mL
- half-life [21]: 7.17 h
- Tmax [21]: 2 h
- AUC(0-inf) [22]: 16200 ng·h/mL
- Cmax [22]: 1650 ng/mL
- AUC(0-t) [22]: 13200 ng·h/mL
- half-life [22]: 9.6 h
- Tmax [22]: 2 h
- Cmax [23]: 1160 ng/mL
- AUC(0-t) [23]: 17900 ng·h/mL
- Tmax [23]: 4 h
- Cmax [24]: 1210 ng/mL
- AUC(0-t) [24]: 12600 ng·h/mL
- Tmax [24]: 4 h
- AUC(0-inf) [25]: 19400 ng·h/mL
- Cmax [25]: 1530 ng/mL
- AUC(0-t) [25]: 17000 ng·h/mL
- half-life [25]: 7.56 h
- Tmax [25]: 2 h
- AUC(0-inf) [26]: 24200 ng·h/mL
- Cmax [26]: 2710 ng/mL
- AUC(0-t) [26]: 21200 ng·h/mL
- half-life [26]: 7.91 h
- Tmax [26]: 0.5 h
- AUC(0-inf) [27]: 41900 ng·h/mL
- Cmax [27]: 2200 ng/mL
- AUC(0-t) [27]: 26000 ng·h/mL
- half-life [27]: 16.4 h
- Tmax [27]: 2 h
- AUC(0-inf) [28]: 4160 ng·h/mL
- Cmax [28]: 406 ng/mL
- AUC(0-t) [28]: 3630 ng·h/mL
- half-life [28]: 7.56 h
- Tmax [28]: 1 h
- AUC(0-inf) [29]: 7180 ng·h/mL
- Cmax [29]: 295 ng/mL
- AUC(0-t) [29]: 4320 ng·h/mL
- half-life [29]: 17.4 h
- Tmax [29]: 2 h
- AUC(0-inf) [30]: 11500 ng·h/mL
- Cmax [30]: 2190 ng/mL
- AUC(0-t) [30]: 10900 ng·h/mL
- half-life [30]: 5.86 h
- Tmax [30]: 1 h
- AUC(0-inf) [31]: 14300 ng·h/mL
- Cmax [31]: 1510 ng/mL
- AUC(0-t) [31]: 11000 ng·h/mL
- half-life [31]: 10.1 h
- Tmax [31]: 1 h
- peak plasma concentrations versus concentrations active in cultured cells (patients 1, 2 and 3, 20 mg oral daily): exceeded those needed to suppress cultured human cancer cell growth
- trough plasma concentrations (immediately prior to dosing on day 2, 15, and 22) (patients 1, 2 and 3, 20 mg oral daily, versus allometric scaling from mice, rats, dogs): higher than anticipated
- effect of pantoprazole on systemic exposure / oral absorption (patients taking pantoprazole vs not): lower in patients taking pantoprazole; also recorded: reduces oral absorption
